Experimental data from ChEMBL document CHEMBL4043200, “Synthesis and biological evaluation of 8-aryl-2-morpholino-7-O-substituted benzo[e][1,3]oxazin-4-ones against DNA-PK, PI3K, PDE3A enzymes and platelet aggregation” (Bioorg Med Chem, 2017).

How the values were obtained:
[1] = molecular target: T1, Phosphatidylinositol 4,5-bisphosphate 3-kinase catalytic subunit delta isoform (Homo sapiens) (UniProt O00329); test: Inhibition of wild type PI3K-delta (unknown origin) assessed as decrease in ATP consumption at 10 uM using phosphotidylinositol bisphosphate and ATP measured after 60 mins by Kinase-Glo reagent based luminescence assay
T1 sequence (whole entry): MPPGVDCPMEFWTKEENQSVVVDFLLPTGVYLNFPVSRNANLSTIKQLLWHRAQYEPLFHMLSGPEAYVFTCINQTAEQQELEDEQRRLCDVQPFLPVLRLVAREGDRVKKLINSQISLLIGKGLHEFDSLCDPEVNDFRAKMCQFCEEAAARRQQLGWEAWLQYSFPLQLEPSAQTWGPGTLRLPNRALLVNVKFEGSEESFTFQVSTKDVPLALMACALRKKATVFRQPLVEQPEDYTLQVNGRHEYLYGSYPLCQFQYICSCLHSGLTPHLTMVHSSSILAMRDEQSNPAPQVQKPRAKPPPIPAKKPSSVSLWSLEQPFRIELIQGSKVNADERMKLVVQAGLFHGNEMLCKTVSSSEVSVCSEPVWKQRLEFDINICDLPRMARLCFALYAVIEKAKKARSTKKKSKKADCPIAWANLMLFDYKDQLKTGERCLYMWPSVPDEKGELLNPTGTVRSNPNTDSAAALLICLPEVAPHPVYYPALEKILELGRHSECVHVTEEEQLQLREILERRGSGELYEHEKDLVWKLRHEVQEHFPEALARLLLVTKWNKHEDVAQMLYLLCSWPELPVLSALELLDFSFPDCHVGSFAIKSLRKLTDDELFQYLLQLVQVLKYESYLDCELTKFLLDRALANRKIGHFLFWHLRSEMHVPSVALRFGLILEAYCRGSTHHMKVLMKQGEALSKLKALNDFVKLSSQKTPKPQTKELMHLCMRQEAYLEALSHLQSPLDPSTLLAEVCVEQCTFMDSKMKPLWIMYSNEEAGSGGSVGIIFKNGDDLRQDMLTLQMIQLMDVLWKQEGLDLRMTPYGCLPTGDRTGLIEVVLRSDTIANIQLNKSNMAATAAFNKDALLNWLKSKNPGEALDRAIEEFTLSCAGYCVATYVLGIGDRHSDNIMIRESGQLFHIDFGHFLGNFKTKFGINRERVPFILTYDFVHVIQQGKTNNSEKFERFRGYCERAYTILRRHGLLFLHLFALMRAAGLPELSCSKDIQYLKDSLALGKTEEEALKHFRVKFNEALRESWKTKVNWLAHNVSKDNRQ

[2] = molecular target: Phosphatidylinositol 4,5-bisphosphate 3-kinase catalytic subunit beta isoform (Homo sapiens) (UniProt P42338); test: Inhibition of wild type PI3K-beta (unknown origin) assessed as decrease in ATP consumption at 10 uM using phosphotidylinositol bisphosphate and ATP measured after 60 mins by Kinase-Glo reagent based luminescence assay
Chain of Phosphatidylinositol 4,5-bisphosphate 3-kinase catalytic subunit beta isoform (Homo sapiens) (P42338 whole entry, looked up, canonical isoform): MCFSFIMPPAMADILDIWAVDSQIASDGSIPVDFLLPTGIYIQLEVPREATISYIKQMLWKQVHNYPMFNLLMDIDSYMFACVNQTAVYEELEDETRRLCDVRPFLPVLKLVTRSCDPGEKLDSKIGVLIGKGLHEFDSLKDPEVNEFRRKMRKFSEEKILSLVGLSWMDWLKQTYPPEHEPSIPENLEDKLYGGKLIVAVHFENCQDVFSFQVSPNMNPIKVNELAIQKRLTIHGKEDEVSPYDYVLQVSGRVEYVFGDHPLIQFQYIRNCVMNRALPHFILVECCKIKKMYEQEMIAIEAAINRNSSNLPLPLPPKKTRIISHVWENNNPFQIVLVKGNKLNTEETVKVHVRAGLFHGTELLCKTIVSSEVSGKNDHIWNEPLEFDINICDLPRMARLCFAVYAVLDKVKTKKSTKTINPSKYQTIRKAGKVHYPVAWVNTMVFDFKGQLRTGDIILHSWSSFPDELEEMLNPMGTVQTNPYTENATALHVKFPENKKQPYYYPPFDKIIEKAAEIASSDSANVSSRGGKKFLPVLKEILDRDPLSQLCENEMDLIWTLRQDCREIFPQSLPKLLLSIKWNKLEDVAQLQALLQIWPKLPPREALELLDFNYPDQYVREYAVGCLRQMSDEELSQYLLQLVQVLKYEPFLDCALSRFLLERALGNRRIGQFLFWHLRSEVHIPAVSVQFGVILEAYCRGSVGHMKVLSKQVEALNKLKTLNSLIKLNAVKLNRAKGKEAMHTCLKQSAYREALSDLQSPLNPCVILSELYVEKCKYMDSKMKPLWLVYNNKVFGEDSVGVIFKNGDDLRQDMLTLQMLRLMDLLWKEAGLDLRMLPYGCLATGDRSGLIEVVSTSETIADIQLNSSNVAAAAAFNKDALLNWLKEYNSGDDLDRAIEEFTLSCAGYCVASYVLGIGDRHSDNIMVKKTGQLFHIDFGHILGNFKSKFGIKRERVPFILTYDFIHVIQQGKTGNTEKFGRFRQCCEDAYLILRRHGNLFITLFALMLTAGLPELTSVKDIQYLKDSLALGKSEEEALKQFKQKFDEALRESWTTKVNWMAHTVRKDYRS

[3] = molecular target: T2, cGMP-inhibited 3',5'-cyclic phosphodiesterase 3A (Homo sapiens, UniProt Q14432); test: Inhibition of human PDE3A at 10 uM by HTRF assay
T2 sequence (Q14432 whole entry): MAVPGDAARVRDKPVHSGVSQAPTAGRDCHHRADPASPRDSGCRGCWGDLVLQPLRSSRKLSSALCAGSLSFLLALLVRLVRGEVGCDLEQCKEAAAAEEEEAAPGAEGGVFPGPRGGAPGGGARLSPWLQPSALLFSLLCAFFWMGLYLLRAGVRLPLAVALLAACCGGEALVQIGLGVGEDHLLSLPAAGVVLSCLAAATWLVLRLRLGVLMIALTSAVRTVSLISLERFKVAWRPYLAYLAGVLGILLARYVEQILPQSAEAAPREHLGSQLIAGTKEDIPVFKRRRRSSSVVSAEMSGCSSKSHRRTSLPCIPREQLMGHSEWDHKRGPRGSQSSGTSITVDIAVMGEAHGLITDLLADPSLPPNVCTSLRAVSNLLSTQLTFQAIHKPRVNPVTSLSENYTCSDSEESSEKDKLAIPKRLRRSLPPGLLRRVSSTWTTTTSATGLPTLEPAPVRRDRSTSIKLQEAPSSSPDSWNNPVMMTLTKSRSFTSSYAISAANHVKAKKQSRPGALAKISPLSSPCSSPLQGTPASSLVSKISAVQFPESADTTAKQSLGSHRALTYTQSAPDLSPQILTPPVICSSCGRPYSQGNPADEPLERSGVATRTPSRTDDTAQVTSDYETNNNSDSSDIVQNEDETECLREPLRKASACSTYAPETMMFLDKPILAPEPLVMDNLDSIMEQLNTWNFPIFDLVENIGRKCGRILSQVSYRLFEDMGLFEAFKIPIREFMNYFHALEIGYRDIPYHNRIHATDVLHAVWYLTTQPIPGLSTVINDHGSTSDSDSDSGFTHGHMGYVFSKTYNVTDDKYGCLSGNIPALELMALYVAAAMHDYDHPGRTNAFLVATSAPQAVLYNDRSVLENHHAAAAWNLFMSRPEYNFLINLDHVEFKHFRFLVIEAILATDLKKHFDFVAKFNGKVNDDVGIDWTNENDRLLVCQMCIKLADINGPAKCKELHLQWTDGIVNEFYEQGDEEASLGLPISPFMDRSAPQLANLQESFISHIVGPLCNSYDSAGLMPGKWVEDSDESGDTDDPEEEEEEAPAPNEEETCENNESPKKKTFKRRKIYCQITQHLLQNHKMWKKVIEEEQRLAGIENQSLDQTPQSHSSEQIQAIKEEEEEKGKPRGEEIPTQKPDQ

[4] = molecular target: DNA-dependent protein kinase catalytic subunit (Homo sapiens, UniProt P78527); test: Inhibition of human DNA-PK catalytic subunit at 10 uM using DNA and [EPPLSQEAFADLWKK] peptide substrate by HTRF assay
[5] = molecular target: Phosphatidylinositol 4,5-bisphosphate 3-kinase catalytic subunit alpha isoform (Homo sapiens) (UniProt P42336); test: Inhibition of wild type PI3K-alpha (unknown origin) assessed as decrease in ATP consumption at 10 uM using phosphotidylinositol bisphosphate and ATP measured after 60 mins by Kinase-Glo reagent based luminescence assay
Chain of Phosphatidylinositol 4,5-bisphosphate 3-kinase catalytic subunit alpha isoform (Homo sapiens) (P42336 whole entry, canonical isoform): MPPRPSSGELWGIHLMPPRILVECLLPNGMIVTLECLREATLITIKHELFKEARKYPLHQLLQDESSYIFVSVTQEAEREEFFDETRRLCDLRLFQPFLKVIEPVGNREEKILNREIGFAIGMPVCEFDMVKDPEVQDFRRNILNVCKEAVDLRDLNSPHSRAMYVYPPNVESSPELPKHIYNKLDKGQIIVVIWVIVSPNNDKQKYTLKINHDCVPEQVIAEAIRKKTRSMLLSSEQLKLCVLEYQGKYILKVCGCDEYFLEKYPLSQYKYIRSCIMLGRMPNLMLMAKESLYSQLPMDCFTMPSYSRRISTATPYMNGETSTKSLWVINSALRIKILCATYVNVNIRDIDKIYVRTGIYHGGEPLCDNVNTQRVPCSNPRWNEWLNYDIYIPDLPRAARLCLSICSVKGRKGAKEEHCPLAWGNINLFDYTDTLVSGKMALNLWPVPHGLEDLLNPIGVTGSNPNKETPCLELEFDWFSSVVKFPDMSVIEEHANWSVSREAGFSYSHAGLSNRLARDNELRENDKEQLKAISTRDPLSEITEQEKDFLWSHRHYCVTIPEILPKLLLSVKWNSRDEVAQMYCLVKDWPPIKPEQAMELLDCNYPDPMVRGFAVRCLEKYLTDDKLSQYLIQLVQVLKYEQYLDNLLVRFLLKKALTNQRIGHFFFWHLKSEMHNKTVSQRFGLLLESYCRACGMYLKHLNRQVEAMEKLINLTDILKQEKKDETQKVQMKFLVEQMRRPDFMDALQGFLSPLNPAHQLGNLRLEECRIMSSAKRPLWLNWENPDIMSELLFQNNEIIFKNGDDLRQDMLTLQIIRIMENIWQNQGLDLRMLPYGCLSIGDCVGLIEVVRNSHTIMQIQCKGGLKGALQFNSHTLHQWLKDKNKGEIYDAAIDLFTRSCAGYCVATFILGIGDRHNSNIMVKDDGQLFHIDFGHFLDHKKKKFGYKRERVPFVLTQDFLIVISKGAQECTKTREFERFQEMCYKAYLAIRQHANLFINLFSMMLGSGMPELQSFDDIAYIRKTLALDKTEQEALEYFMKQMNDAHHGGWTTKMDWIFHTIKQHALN

[6] = molecular target: T2, cGMP-inhibited 3',5'-cyclic phosphodiesterase 3A; test: Inhibition of human PDE3A by HTRF assay
[7] = molecular target: Phosphatidylinositol 4,5-bisphosphate 3-kinase catalytic subunit gamma isoform (Homo sapiens) (UniProt P48736); test: Inhibition of wild type PI3K-gamma (unknown origin) assessed as decrease in ATP consumption at 10 uM using phosphotidylinositol bisphosphate and ATP measured after 60 mins by Kinase-Glo reagent based luminescence assay
Chain of Phosphatidylinositol 4,5-bisphosphate 3-kinase catalytic subunit gamma isoform (Homo sapiens) (P48736 whole entry, looked up, canonical isoform): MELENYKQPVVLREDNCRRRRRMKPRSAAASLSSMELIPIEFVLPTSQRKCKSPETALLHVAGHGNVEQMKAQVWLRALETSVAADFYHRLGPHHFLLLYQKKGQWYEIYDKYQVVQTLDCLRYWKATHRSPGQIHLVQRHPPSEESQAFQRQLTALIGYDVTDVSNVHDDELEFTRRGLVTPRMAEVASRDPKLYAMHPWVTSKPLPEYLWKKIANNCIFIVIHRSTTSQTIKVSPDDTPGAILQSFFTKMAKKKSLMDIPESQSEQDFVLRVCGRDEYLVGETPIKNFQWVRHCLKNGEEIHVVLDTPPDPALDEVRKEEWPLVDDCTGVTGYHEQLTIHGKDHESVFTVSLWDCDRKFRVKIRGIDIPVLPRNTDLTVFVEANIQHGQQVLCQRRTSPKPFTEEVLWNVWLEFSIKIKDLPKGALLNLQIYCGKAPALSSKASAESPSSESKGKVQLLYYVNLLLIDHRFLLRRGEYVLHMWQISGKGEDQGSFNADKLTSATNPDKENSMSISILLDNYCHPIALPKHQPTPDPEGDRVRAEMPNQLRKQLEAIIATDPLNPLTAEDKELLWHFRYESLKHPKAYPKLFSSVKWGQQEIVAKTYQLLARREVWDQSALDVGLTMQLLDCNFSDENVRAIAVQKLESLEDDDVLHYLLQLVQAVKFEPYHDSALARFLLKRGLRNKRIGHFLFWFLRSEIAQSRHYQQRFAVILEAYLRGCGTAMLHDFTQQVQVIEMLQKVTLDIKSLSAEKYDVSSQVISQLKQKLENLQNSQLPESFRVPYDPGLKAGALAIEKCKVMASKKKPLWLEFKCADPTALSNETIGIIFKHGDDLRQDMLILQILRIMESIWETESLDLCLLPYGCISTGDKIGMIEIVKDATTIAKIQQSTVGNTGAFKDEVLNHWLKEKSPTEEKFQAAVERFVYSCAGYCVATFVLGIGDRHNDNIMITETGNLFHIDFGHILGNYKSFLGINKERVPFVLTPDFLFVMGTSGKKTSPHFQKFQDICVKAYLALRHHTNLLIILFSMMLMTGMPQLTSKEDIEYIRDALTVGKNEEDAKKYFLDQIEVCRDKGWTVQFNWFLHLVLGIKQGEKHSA

[8] = molecular target: T3, Phosphatidylinositol 4,5-bisphosphate 3-kinase catalytic subunit delta isoform (Homo sapiens, UniProt O00329); test: Inhibition of wild type PI3K-delta (unknown origin) assessed as decrease in ATP consumption using phosphotidylinositol bisphosphate and ATP measured after 60 mins by Kinase-Glo reagent based luminescence assay
T3 sequence (O00329 whole entry): T1 sequence (whole entry)

Platelet = test: Inhibition of platelet aggregation in human platelet-rich plasma pre-incubated for 5 mins before ADP stimulation for 10 mins; format: functional, cell-based

Compound | inhibition [1] [%] | inhibition [2] [%] | inhibition [3] [%] | inhibition [4] [%] | inhibition [5] [%] | IC50 [6] [µM] | inhibition [7] [%] | IC50 [8] [µM] | IC50 (Platelet) [µM]
O=c1nc(N2CCOCC2)oc2c(-c3cccs3)c(OCc3ccccn3)ccc12 | 21.8 | 4.1 | 74.5 | 40.1 | -0.6 | 2.95 | 0.1 | – | –
O=c1nc(N2CCOCC2)oc2c(-c3cc4ccccc4s3)c(OCc3ccccn3)ccc12 | 24.6 | – | 77.9 | 47.2 | – | 3.01 | -1 | – | –
O=c1nc(N2CCOCC2)oc2c(-c3ccccc3)c(OCc3ccccn3)ccc12 | 88.9 | 66.4 | 71.3 | 25.7 | 59.2 | 2.75 | 38.1 | 4 | –
O=c1nc(N2CCOCC2)oc2c(-c3ccsc3)c(OCc3ccccn3)ccc12 | 18 | -3 | 88.8 | 39.7 | -8.1 | 3.05 | 4.4 | – | –
O=c1nc(N2CCOCC2)oc2c(-c3ccccc3)c(OCc3cccnc3)ccc12 | 85.5 | 64.4 | 50.4 | 18 | 57.9 | – | 25.7 | 7.2 | 80
CN1CCN(CCOc2ccc3c(=O)nc(N4CCOCC4)oc3c2-c2ccccc2)CC1 | 53.4 | 31.8 | 11.4 | 9.8 | 24 | – | 4.3 | – | 10
COc1ccc(-c2c(OCc3cccnc3)ccc3c(=O)nc(N4CCOCC4)oc23)cc1 | 87.8 | 39.3 | 29.8 | 33.5 | 30 | – | -2.2 | 2.8 | –
CC(C)Cn1c(=O)n(C)c(=O)c2[nH]cnc21 [ISOBUTYLMETHYLXANTHINE] | – | – | – | – | – | 7 | – | – | –
O=c1nc(N2CCOCC2)oc2c(-c3ccc(Cl)cc3)c(OCc3ccccn3)ccc12 | 62.1 | 48.8 | 63.3 | 27 | 28.6 | – | 23.5 | 14.7 | –
